In patent US9216183B2, “Topical treatment for chemotherapy induced eyelash loss or hypotrichosis using prostamide F2 alpha agonists” (ALLERGAN, INC., priority 2002, dated 2015):

Columns and labels:
Format in all cases: in vivo, human
[1] = Safety (adverse events, IOP), idiopathic hypotrichosis subpopulation
Protocol: (§1) Safety measures included adverse events (AEs), ophthalmic examination (ophthalmoscopy [dilated], biomicroscopy, IOP, iris color assessment, and BCVA). AEs were monitored throughout the study by the investigator.
(§2) The 12-month data were the primary focus of the safety evaluation. Safety data were summarized with descriptive statistics (n, or frequency distributions [counts or percentages]). Biomicroscopic examinations and assessments of iris color, IOP, and BCVA were performed for each subject at screening/baseline and months 1, 2, 4, 6, 8, and 12 (or early termination prior to month 12); ophthalmoscopic examinations (dilated) were performed at screening/baseline and months 6 and 12 (or early termination prior to month 12). Two IOP measurements were taken for each eye at each visit; a third measurement was taken if the difference between the first 2 measurements was more than 2 mm Hg. The average or median IOP was determined in the event that 2 or 3 measurements were made, respectively. The IOP value analyzed at each visit was the average IOP of the subject's 2 eyes. Change and percent change from baseline in IOP were summarized by descriptive statistics. Between-group comparison will be performed using the 1-way analysis of variance.

[2] = Safety (adverse events, IOP), chemotherapy-induced hypotrichosis subpopulation
Protocol: as §1, §2

[3] = test system: eyelashes of subjects with chemotherapy-induced hypotrichosis; test: Digital image analysis of upper eyelash length, thickness, darkness, chemotherapy-induced hypotrichosis; settings: for Upper eyelash length, median percent change from baseline / Upper eyelash thickness, median percent change from baseline / Upper eyelash darkness, median percent change from baseline: chemotherapy-induced; for Upper eyelash darkness, median percent change from baseline / Mean change from baseline in eyelash darkness: negative = darker
Protocol: Efficacy was also assessed using more conservative criteria of 2-grade improvement in GEA. […] In addition to the investigator global assessment (GEA) and subjects own assessment (ESQ), the eyelash length, thickness/fullness and darkness were measures using digital image analysis. Secondary efficacy measures were based on digital image analysis (DIA) of eyelash characteristics: upper eyelash length (millimeters [mm]), thickness (mm^2), and darkness (intensity units). For darkness, a negative value in terms of change from baseline indicated darker eyelashes. Upper eyelash characteristics of length, thickness, and darkness were determined by a validated DIA method. The reliability and reproducibility of DIA have been verified within the acceptance criteria of 0.05% or less of mean coefficient of variance. The principal variables for the secondary efficacy assessments are: change from baseline in upper eyelash length (mm), average progressive eyelash thickness (mm^2), and eyelash darkness (intensity units) at months 4, 6, 10, and 12 or early termination. Descriptive statistics of the raw value at baseline and percent change from baseline at follow-up visits were summarized by treatment group for each principal measure of the 3 secondary variables of eyelash characteristics. Between-group comparisons were performed using a van Elteren test stratified by hypotrichosis etiology.

[4] = chemotherapy-induced, 0 to 6 Months (N = 96)
[5] = chemotherapy-induced, 0 to 12 Months (N = 96)
[6] = chemotherapy-induced, 6 to 12 Months (N = 89)
[7] = postchemotherapy, first 6-month study period
[8] = postchemotherapy, first 6 months, N = 96
[9] = postchemotherapy, Month 4, bimatoprost from day 1
[10] = postchemotherapy, Month 4, bimatoprost from day 1, listed as Bim/Bim
[11] = postchemotherapy, Month 6, bimatoprost from day 1
[12] = postchemotherapy, Month 6, bimatoprost from day 1, listed as Bim/Bim
[13] = postchemotherapy, Month 6, bimatoprost from day 1, listed as bimatoprost
[14] = postchemotherapy, Month 10, Bim/Bim
[15] = postchemotherapy, Month 10, Veh/Bim (bimatoprost since month 6)
[16] = postchemotherapy, Month 12, Bim/Bim
[17] = postchemotherapy, Month 12, Veh/Bim (bimatoprost since month 6)
[18] = postchemotherapy, Month 12, bimatoprost up to 12 months

## CCNC(=O)CCC/C=C\C[C@@H]1[C@@H](/C=C/[C@@H](O)CCc2ccccc2)[C@H](O)C[C@@H]1O [Bim 0.03%, bimatoprost]
[1]; 0 to 6 Months (N = 118)
  Conjunctival hyperaemia: 5.9%
  Erythema of eyelid: 1.7%
  Eye pruritus: 0.8%
  Eyelids pruritus: 5.1%
  Punctate keratitis: 2.5%
  Skin hyperpigmentation: 0.0%
[1]; 0 to 12 Months (N = 118)
  Conjunctival hyperaemia: 8.5%
  Erythema of eyelid: 5.1%
  Eye pruritus: 0.8%
  Eyelids pruritus: 5.9%
  Punctate keratitis: 2.5%
  Skin hyperpigmentation: 1.7%
[1]; 6 to 12 Months (N = 106)
  Conjunctival hyperaemia: 3.8%
  Erythema of eyelid: 4.7%
  Eye pruritus: 0.0%
  Eyelids pruritus: 0.9%
  Punctate keratitis: 0.0%
  Skin hyperpigmentation: 1.9%
[1]; month 4, IOP measured in mm Hg
  Mean change from baseline in IOP: −1.17
[2]; [4]
  Conjunctival hyperaemia: 15.6%
  Erythema of eyelid: 1.0%
  Eye pruritus: 5.2%
  Eyelids pruritus: 3.1%
  Punctate keratitis: 8.3%
  Skin hyperpigmentation: 3.1%
[2]; [5]
  Conjunctival hyperaemia: 16.7%
  Erythema of eyelid: 3.1%
  Eye pruritus: 6.3%
  Eyelids pruritus: 3.1%
  Punctate keratitis: 9.4%
  Skin hyperpigmentation: 5.2%
[2]; chemotherapy-induced, 2-month visit, IOP measured in mm Hg
  Mean change from baseline in IOP: −1.22
[2]; [6]
  Conjunctival hyperaemia: 1.1%
  Erythema of eyelid: 2.2%
  Eye pruritus: 1.1%
  Eyelids pruritus: 1.1%
  Punctate keratitis: 1.1%
  Skin hyperpigmentation: 2.2%
[2]; [7]
  Subjects reporting at least 1 adverse event: 57.3%
  Subjects reporting treatment-related adverse events: 27.1%
[2]; postchemotherapy, first 6 months
  Treatment-related adverse events reported as severe: None
[2]; [8]
  Treatment-related conjunctival hyperaemia: 12 subjects
  Treatment-related eye pruritus: 3 subjects
  Treatment-related eyelid irritation: 2 subjects
  Treatment-related eyelids pruritus: 3 subjects
  Treatment-related punctate keratitis: 7 subjects
  Treatment-related skin hyperpigmentation: 3 subjects
[3]; Month 4
  Upper eyelash length, median percent change from baseline: 28.50%
  Upper eyelash thickness, median percent change from baseline: 180.10%
  Upper eyelash darkness, median percent change from baseline: −14.40%
[3]; Month 4, listed as Bimatoprost
  Upper eyelash length, median percent change from baseline: 28.5 (94) %
  Upper eyelash thickness, median percent change from baseline: 180.1 (64) %
  Upper eyelash darkness, median percent change from baseline: −14.4 (65) %
[3]; Month 6, listed as Bimatoprost
  Upper eyelash length, median percent change from baseline: 37.8 (94) %
  Upper eyelash thickness, median percent change from baseline: 245.9 (64) %
[3]; Month 6, listed as bimatoprost
  Upper eyelash length, median percent change from baseline: 37.84%
  Upper eyelash thickness, median percent change from baseline: 245%
[3]; Month 6
  Upper eyelash darkness, median percent change from baseline: −16.3 (65) %
[3]; [9]
  Mean change from baseline in average progressive eyelash thickness: 0.67 mm^2
  Mean change from baseline in eyelash length: 1.48 mm
[3]; [10]
  Mean change from baseline in average progressive eyelash thickness: 0.67 ± 0.514 mm^2
  Mean change from baseline in eyelash length: 1.48 ± 1.391 mm
[3]; postchemotherapy, Month 4
  Mean change from baseline in eyelash darkness: −22.48
[3]; postchemotherapy, Month 6
  Eyelash length, mean percent increase from baseline: 48.08%
  Eyelash thickness, mean percent increase from baseline: 428%
  Mean change from baseline in eyelash darkness: −26.46
[3]; [11]
  Mean change from baseline in average progressive eyelash thickness: 0.83 mm^2
  Mean change from baseline in eyelash length: 1.99 mm
[3]; [12]
  Mean change from baseline in average progressive eyelash thickness: 0.83 ± 0.576 mm^2
  Mean change from baseline in eyelash length: 1.99 ± 1.557 mm
[3]; [13]
  Mean change from baseline in average progressive eyelash thickness: 0.83 mm^2
  Mean change from baseline in eyelash length: 1.99 mm
[3]; [14]
  Mean change from baseline in average progressive eyelash thickness: 0.88 ± 0.516 mm^2
  Mean change from baseline in eyelash length: 2.14 ± 1.455 mm
[3]; [15]
  Mean change from baseline in average progressive eyelash thickness: 0.63 ± 1.042 mm^2
  Mean change from baseline in eyelash length: 2.27 ± 1.439 mm
[3]; [16]
  Mean change from baseline in average progressive eyelash thickness: 0.85 ± 0.575 mm^2
  Mean change from baseline in eyelash length: 2.01 ± 1.504 mm
[3]; [17]
  Mean change from baseline in average progressive eyelash thickness: 0.58 ± 1.085 mm^2
  Mean change from baseline in eyelash length: 2.07 ± 1.442 mm
[3]; [18]
  Eyelash length, mean percent increase from baseline: 49.88%
  Eyelash length, median percent increase from baseline: 39.08%
  Eyelash thickness, mean percent increase from baseline: 478%
  Eyelash thickness, median percent increase from baseline: 212%
